From PubChem BioAssay (NCI)
Several values for one entry are separate records, joined by “and”; a condition that tells them apart may be missing. Identical values can stand only once.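 Five concentrations, 48 hours, 96-well plates. Here, GI50 denotes the concentration required for 50% inhibition of growth. Definition used: TGI = concentration required for complete inhibition of growth.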

How the values were obtained:
Experiment in all cases: NCI anticancer screen, dose series, 48 h
[1] = test system: A498 renal
[2] = test system: HCT-116 colon
[3] = test system: KM12 colon
[4] = test system: MDA-MB-231 breast
[5] = test system: NCI-H226 lung
[6] = test system: NCI-H23 lung
[7] = test system: OVCAR-4 ovarian
[8] = test system: SR leukemia
[9] = test system: TK-10 renal
[10] = test system: UACC-62 melanoma

Cn1ncc(Cl)c1-c1cc(C(=O)N[C@H](CN)Cc2cccc(F)c2)sc1Cl
GI50 [1]: 0.126 µM and 0.104 µM | TGI [1]: 0.705 µM and 0.779 µM | GI50 [2]: 1.27 µM and 2.84 µM | TGI [2]: > 5.17 µM and 13.6 µM | GI50 [3]: 0.467 µM and 0.835 µM | TGI [3]: 3.51 µM and 8.31 µM | GI50 [4]: 2.25 µM and 2.4 µM | TGI [4]: > 8.32 µM and 8.33 µM | GI50 [5]: > 4.48 µM and 11.6 µM | TGI [5]: > 10 µM and 32.2 µM | GI50 [6]: 2.45 µM and 8.12 µM | TGI [6]: > 8.23 µM and 22 µM | GI50 [7]: 4.9 µM and 6.33 µM | TGI [7]: > 10 µM and 19.3 µM | GI50 [8]: 0.749 µM and 1.54 µM | TGI [8]: 3.11 µM and 4.74 µM | GI50 [9]: 0.531 µM and 1.73 µM | TGI [9]: 5.76 µM and 14.3 µM | GI50 [10]: 1.07 µM and 1.46 µM | TGI [10]: > 5.59 µM and 11.6 µM

COC[C@H](NC(=O)c1cnc(C)s1)C(=O)N[C@@H](COC)C(=O)N[C@@H](Cc1ccccc1)C(=O)[C@@]1(C)CO1
GI50 [1]: 45.3 µM | TGI [1]: > 100 µM | GI50 [2]: 9.27 µM | TGI [2]: 32.6 µM | GI50 [3]: 21.4 µM | TGI [3]: 56 µM | GI50 [4]: 16.2 µM | TGI [4]: 39 µM | GI50 [5]: 17.4 µM | TGI [5]: 46.6 µM | GI50 [6]: 36.6 µM | TGI [6]: > 100 µM | GI50 [7]: 44.4 µM | TGI [7]: > 100 µM | GI50 [8]: > 61.4 µM | TGI [8]: > 100 µM | GI50 [9]: 27.3 µM | TGI [9]: > 72.2 µM | GI50 [10]: 15.8 µM | TGI [10]: 39 µM

CC1(C)N=C(N)N=C(N)N1c1ccc(CNC(=O)Nc2ccc(S(=O)(=O)F)c(Cl)c2)c(Cl)c1
GI50 [1]: 9.5 µM | TGI [1]: > 100 µM | GI50 [2]: 0.379 µM | TGI [2]: > 100 µM | GI50 [3]: 0.589 µM | TGI [3]: > 100 µM | GI50 [4]: 15.6 µM | TGI [4]: > 100 µM | GI50 [5]: 13.7 µM | TGI [5]: > 100 µM | GI50 [6]: 0.585 µM | TGI [6]: > 100 µM | GI50 [7]: 4.57 µM | TGI [7]: > 100 µM | GI50 [8]: 0.167 µM | TGI [8]: > 100 µM | GI50 [9]: 8.39 µM | TGI [9]: > 100 µM | GI50 [10]: 0.303 µM | TGI [10]: > 100 µM

CC1(C)Oc2ccc3ccc(=O)oc3c2C(O)C1O (stereo not given)
TGI [1]: > 100 µM | TGI [2]: > 100 µM | TGI [3]: > 100 µM | TGI [4]: > 100 µM | TGI [5]: > 100 µM | TGI [6]: > 100 µM | TGI [7]: > 100 µM | TGI [8]: > 100 µM | TGI [10]: > 100 µM

CCC(CC)n1cnc2c(-c3cnc(N)cn3)nc(N3CC4CCC(C3)O4)nc21
GI50 [1]: 0.0749 µM | TGI [1]: 0.466 µM | GI50 [2]: 0.63 µM | TGI [2]: > 100 µM | GI50 [3]: 0.377 µM | TGI [3]: > 100 µM | GI50 [4]: 0.191 µM | TGI [4]: > 100 µM | GI50 [5]: 0.549 µM | TGI [5]: > 100 µM | GI50 [6]: 0.56 µM | TGI [6]: > 100 µM | GI50 [7]: 0.169 µM | TGI [7]: 3.17 µM | GI50 [8]: 0.351 µM | TGI [8]: > 100 µM | GI50 [9]: 0.168 µM | TGI [9]: 5.15 µM | GI50 [10]: 0.122 µM | TGI [10]: 0.929 µM

COc1cc2nc(N3CCCN(C)CC3)nc(NC3CCN(Cc4ccccc4)CC3)c2cc1OC
GI50 [1]: 0.904 µM | TGI [1]: 7.66 µM | GI50 [2]: 2.24 µM | TGI [2]: 6.19 µM | GI50 [3]: 3.07 µM | TGI [3]: 9.82 µM | GI50 [4]: 1.68 µM | TGI [4]: 4.75 µM | GI50 [5]: 2.68 µM | TGI [5]: 9.08 µM | GI50 [6]: 5.71 µM | TGI [6]: 19.7 µM | GI50 [7]: 1.81 µM | TGI [7]: 4.79 µM | GI50 [8]: 2.23 µM | TGI [8]: 6.66 µM | GI50 [9]: 1.88 µM | TGI [9]: 4.02 µM | GI50 [10]: 1.89 µM | TGI [10]: 3.56 µM

COc1ccc2c(c1)CCC1C2CC[C@@]2(C)C1CC[C@@H]2NC(=O)Cc1ccc(O)c(O)c1 (stereo not given in full)
GI50 [1]: 18.8 µM | TGI [1]: 33.7 µM | GI50 [2]: 3.53 µM | TGI [2]: 18.9 µM | GI50 [3]: 5.47 µM | TGI [3]: 21.7 µM | GI50 [4]: 4.05 µM | TGI [4]: 16.9 µM | GI50 [5]: 10.1 µM | TGI [5]: 35.3 µM | GI50 [6]: 11.9 µM | TGI [6]: 27.6 µM | GI50 [7]: 4.26 µM | TGI [7]: 18.6 µM | GI50 [8]: 3.46 µM | TGI [8]: 18.7 µM | GI50 [9]: 8.86 µM | TGI [9]: 22.1 µM | GI50 [10]: 4.14 µM | TGI [10]: 14.8 µM

O=C(O)Cc1cccc2c(=O)cc(-c3ccccc3)oc12
GI50 [1]: 307 µM | TGI [1]: 250 µM and 979 µM | GI50 [2]: 294 µM | TGI [2]: 212 µM and > 868 µM | GI50 [3]: 334 µM | TGI [3]: 250 µM and > 889 µM | GI50 [4]: 834 µM | TGI [4]: > 1000 µM | GI50 [5]: 363 µM | TGI [5]: 250 µM and > 1000 µM | GI50 [6]: 581 µM | TGI [6]: > 1000 µM | GI50 [7]: 546 µM | TGI [7]: 250 µM and > 1000 µM | TGI [8]: 250 µM and > 917 µM | GI50 [9]: 990 µM | TGI [9]: > 1000 µM | GI50 [10]: 475 µM | TGI [10]: > 1000 µM

O=C1Nc2c(Cl)cc(Cl)cc2/C1=N/N=C/c1ccco1
TGI [1]: 57.7 µM | TGI [2]: > 100 µM | TGI [3]: > 100 µM | TGI [4]: 58 µM | TGI [5]: 59.2 µM | TGI [6]: 75.9 µM | TGI [7]: > 100 µM | TGI [8]: > 100 µM | TGI [9]: > 100 µM | TGI [10]: 53.6 µM

O=C(O)c1cccc(S(=O)(=O)NCCO)c1
TGI [1]: > 100 µM | TGI [2]: > 100 µM | TGI [3]: > 100 µM | TGI [4]: > 100 µM | TGI [5]: > 100 µM | TGI [6]: > 100 µM | TGI [7]: > 100 µM | TGI [8]: > 100 µM | TGI [9]: > 100 µM | TGI [10]: > 100 µM

Oc1ccccc1-c1nn(CNc2ccc(Cl)cc2)c(=S)o1
GI50 [1]: > 100 µM | TGI [1]: > 100 µM | GI50 [2]: 18.2 µM | TGI [2]: 51.4 µM | GI50 [3]: 11.7 µM | TGI [3]: > 100 µM | GI50 [4]: > 100 µM | TGI [4]: > 100 µM | GI50 [5]: 14.1 µM | TGI [5]: > 100 µM | GI50 [6]: 0.511 µM | TGI [6]: 64.5 µM | GI50 [8]: 16 µM | TGI [8]: 43.4 µM | GI50 [9]: 1.53 µM | TGI [9]: > 100 µM | GI50 [10]: 0.633 µM | TGI [10]: > 100 µM

Cc1ccc(OP(=O)(Oc2ccc(C)cc2)N2C=Cc3ccccc3C2C#N)cc1 (stereo not given)
TGI [1]: > 100 µM | TGI [2]: > 100 µM | TGI [3]: > 100 µM | TGI [4]: > 100 µM | TGI [5]: > 100 µM | TGI [6]: > 100 µM | TGI [7]: > 100 µM | TGI [8]: > 100 µM | TGI [9]: > 100 µM | TGI [10]: > 100 µM

CC1=CCC2CC1C(C(=O)c1c[nH]c3ccccc13)=NC2(C)C (stereo not given)
TGI [1]: > 100 µM | TGI [2]: > 100 µM | TGI [3]: > 100 µM | TGI [4]: > 100 µM | TGI [5]: > 100 µM | TGI [6]: > 100 µM | TGI [7]: > 100 µM | TGI [8]: > 100 µM | TGI [10]: > 100 µM

COc1ccc(Nc2nc(NCCNc3ccnc4cc(Cl)ccc34)nc(N3CCOCC3)n2)cc1
GI50 [1]: 0.272 µM | TGI [1]: 2.19 µM | GI50 [2]: 3.01 µM | TGI [2]: 14.8 µM | GI50 [3]: 5.18 µM | TGI [3]: 18 µM | GI50 [4]: 2.73 µM | TGI [4]: 10.2 µM | GI50 [5]: 3.89 µM | TGI [5]: 18.3 µM | GI50 [6]: 13.7 µM | TGI [6]: 29.7 µM | GI50 [7]: 9 µM | TGI [7]: 24.5 µM | GI50 [8]: 2.01 µM | TGI [8]: 7.36 µM | GI50 [9]: 7.64 µM | TGI [9]: 20.6 µM | GI50 [10]: 1.85 µM | TGI [10]: 3.59 µM

O=S(=O)(N=C1C(Cl)=C(Cl)C(=NS(=O)(=O)c2ccccc2)C(Cl)=C1Cl)c1ccccc1
GI50 [1]: 15.9 µM | TGI [1]: 50.9 µM | GI50 [2]: 13.6 µM | TGI [2]: 29.1 µM | GI50 [3]: 12.2 µM | TGI [3]: 25.6 µM | GI50 [4]: 21.9 µM | TGI [4]: > 100 µM | GI50 [5]: 21.6 µM | TGI [5]: 56.2 µM | GI50 [6]: 25.6 µM | TGI [6]: > 100 µM | GI50 [7]: 22.1 µM | TGI [7]: > 100 µM | GI50 [8]: 12.7 µM | TGI [8]: > 100 µM | GI50 [9]: 24.9 µM | TGI [9]: 61.9 µM | GI50 [10]: 13.3 µM | TGI [10]: 38.4 µM
